Data on 1 compound can be found in ChEMBL document CHEMBL4422660, “Synthesis of NSC 106084 and NSC 14778 and evaluation of their DNMT inhibitory activity” (Bioorg Med Chem Lett, 2019).

SMILES strings stand for the structures. Activity calls are given as the source filed them. No cut-off for these calls is given here.

This test has as its system DNA. The test is described as follows: Induction of DNA intercalation using nucleosomal DNA (unknown origin) up to 1 mM by CYBR Green dye-based fluorescence assay. The class given is nucleic-acid assay.

Take `O=C(O)c1cc(Cc2ccc(O)c(C(=O)O)c2)ccc1O`: the outcome was inactive.
